Data from US12181473B2 (priority 2017, dated 2024).

System: fumonisin B1 monoclonal antibody secreted from the hybridoma cell line Fm7A11
Format: binding, BALB/c mice

Structure (SMILES)	Cross rates of response	sensitivity (IC50, concentration of competitive antigen at 50% suppression ratio)
CCCC[C@@H](C)[C@@H](OC(=O)C[C@@H](CC(=O)O)C(=O)O)[C@H](C[C@@H](C)CCCCCC[C@@H](O)C[C@H](O)[C@H](C)N)OC(=O)C[C@@H](CC(=O)O)C(=O)O [fumonisin B2]	4.3%	
CCCC[C@@H](C)[C@@H](OC(=O)C[C@@H](CC(=O)O)C(=O)O)[C@H](C[C@@H](C)C[C@H](O)CCCCCC[C@H](O)[C@H](C)N)OC(=O)C[C@@H](CC(=O)O)C(=O)O [fumonisin B3]	12.8%	
CCCC[C@@H](C)[C@@H](OC(=O)C[C@@H](CC(=O)O)C(=O)O)[C@H](C[C@@H](C)C[C@H](O)CCCC[C@@H](O)C[C@H](O)[C@H](C)N)OC(=O)C[C@@H](CC(=O)O)C(=O)O [fumonisin B1]		0.32 ng/mL
